From patent USRE42890E1, “Furazanobenzimidazoles” (Basilea Pharmaceutica AG, priority 2003, dated 2011)
Read-outs that look alike come from different tables or passages of the source.

Experiments:
Jurkat = experiment: MTS proliferation assay, Jurkat; format: cell-based, human; settings: 72 h incubation, read-out: MTS proliferation assay IC 50 Jurkat
Experimental: (§1) Cell lines are cultured in RPMI-1640 tissue culture medium containing either 5% or 10% fetal calf serum, 0.05 mM 2-mercaptoethanol, 2 mM glutamine and penicillin/streptomycin 50 μg/ml (complete medium) (Sigma, Buchs, Switzerland). General growth conditions are 37° C. and 7.5% CO2.
(§2) The following human cell lines (either EGFP transfected or not) are being used: HeLa (ATCC: CCL-2), KB (ATCC: CCL-17), MCF7 (ATCC: HTB-22), SK-BR-3 (ATCC: HTB-30), SK-Mel 1 (ATCC: HTB-67), SK-Mel 28 (ATCC: HTB-72), PC-3 (ATCC: CRL-1435), SW 480 (ATCC: CCL-228), NCl-H460 (ATCC: HTB-177), NCl-H1792 (ATCC: CRL-5895), HT1080 (ATCC: CCL-21), Jurkat (ATCC: TIB-152), Ramos (ATCC: CRL-1596), Raji (ATCC: CCL-86), H9 (ATCC: HTB-176), Hut78 (ATCC: TIB-161), K562 (ATCC: CCL 243), HL-60 (ATCC: CCL 240), U-87MG (ATCC: HTB-14), HepG2 (ATCC: HB-8065), U-2 OS (ATCC: HTB-96), Saos-2 (ATCC: HTB-85), U937 (ATCC: CRL 1593), Hs 578T (ATCC: HTB 126), HBL-100 (ATCC: HTB 124), Molt-4 (ATCC: CRL 1582).
(§3) The assay is performed in 96 well tissue culture plates. The cells (range: 1.5*10^3-10^4) are seeded out in 80 μl complete medium 24 h prior to compound treatment. The test compounds are added in 20 μl complete medium containing max 5% DMSO. The final compound concentrations in the assays are 10 μM, 3 μM, 1 μM and 0.3 μM, respectively. The assay plates are incubated for 72 h at culture conditions. The MTS reagent is prepared according to the manufacturer's protocol (Promega G1111). 20 μl MTS reagent are added to each well, the assay plates are quickly spun and incubated for another 3 h at culture conditions. Subsequently, the plates are shortly shaked and absorption measured with a microplate-reader at 492 nm.

HeLa = experiment: MTS proliferation assay, HeLa; format: cell-based, human; settings: 72 h incubation, read-out: MTS proliferation assay IC 50 HeLa
Experimental: as §1, §2, §3

MRC5 = experiment: MTS proliferation assay, MRC5; format: cell-based; settings: MRC5, 72 h incubation, read-out: MTS proliferation assay IC 50 MRC5
Experimental: as §1, §3

[1] = tested on: adherent cells or suspension cells; experiment: Hoechst 33342 nuclear staining (fraction of apoptotic nuclei); format: cell-based; design: key: 0 relating to no activity; 1 relating to weak activity comprising less than 70% of the cells; score 2 relating to strong activity comprising more than 70% of the cells
Experimental: as §1
This assay is performed in 96 well tissue culture plates. Appropriate number of cells (adherent cells: 3-5*10^3, suspension cells: 8-10*10^3) are being seeded out in 80 μl complete medium. Adherent cells are incubated for 24 h for proper spreading out before addition of test compounds while suspension cells are immediately treated with test compounds after seeding out. The test compounds are added in 20 μl complete medium containing max 5% DMSO. […] After 24 h or 48 h incubation at culture conditions, 10 μl medium containing Hoechst 33342 dye (Sigma B-2261) at 2-5 μg/ml are added to each well. The assay plates are then further incubated for 30 minutes and subsequently analyzed with a standard inverted fluorescence microscope.
The readout allows the determination of the fraction of apoptotic nuclei as well as other morphological criteria specific for apoptosis as a function of the treatment. The following scores are used: 0 relating to no activity, 1 relating to weak activity comprising less than 70% of the cells and score 2 relating to strong activity comprising more than 70% of the cells.

SMILES | IC50 (Jurkat) [nM] | IC50 (HeLa) [nM] | IC50 (MRC5) [nM] | Hoechst 33342 nuclear staining score ([1]; H460, conc 0.01 μm) | Hoechst 33342 nuclear staining score ([1]; H460, conc 0.1 μm) | Hoechst 33342 nuclear staining score ([1]; H460, conc 1 μm) | Hoechst 33342 nuclear staining score ([1]; HeLa, conc 0.01 μm) | Hoechst 33342 nuclear staining score ([1]; HeLa, conc 0.1 μm) | Hoechst 33342 nuclear staining score ([1]; HeLa, conc 1 μm) | Hoechst 33342 nuclear staining score ([1]; Jurkat, conc 0.01 μm) | Hoechst 33342 nuclear staining score ([1]; Jurkat, conc 0.1 μm) | Hoechst 33342 nuclear staining score ([1]; Jurkat, conc 1 μm) | Hoechst 33342 nuclear staining score ([1]; MRC5, conc 0.01 μm) | Hoechst 33342 nuclear staining score ([1]; MRC5, conc 0.1 μm) | Hoechst 33342 nuclear staining score ([1]; MRC5, conc 1 μm) | Hoechst 33342 nuclear staining score ([1]; PBLs, conc 0.01 μm) | Hoechst 33342 nuclear staining score ([1]; PBLs, conc 0.1 μm) | Hoechst 33342 nuclear staining score ([1]; PBLs, conc 1 μm) | Hoechst 33342 nuclear staining score ([1]; Jily, conc 0.01 μm) | Hoechst 33342 nuclear staining score ([1]; Jily, conc 0.1 μm) | other results
Nc1nonc1-c1nc2ccccc2n1CC(=NO)c1ccc(-c2ccccc2)cc1 (mixture of isomers) [Example 27] | > 1000 | > 1000 | > 1000 | 0 | 0 | 0 | 0 | 0 | 0 | 0 | 0 | 0 | 0 | 0 | 0 | 0 | 0 | 0 |  |  | 
CON=C(Cn1c(-c2nonc2N)nc2ccccc21)c1ccc(Cl)cc1 (mixture of isomers) [Example 22] | 100 to 1000 | 100 to 1000 | 100 to 1000 | 0 | 0 | 0 | 0 | 0 | 2 (score 2 relating to strong activity comprising more than 70% of the cells) | 0 | 0 | 2 (score 2 relating to strong activity comprising more than 70% of the cells) | 0 | 0 | 0 | 0 | 0 | 0 |  |  | 
CON=C(Cn1c(-c2nonc2N)nc2ccccc21)c1ccccc1 (mixture of isomers) [Example 18] | 100 to 1000 | > 1000 | 100 to 1000 | 0 | 0 | 1 (1 relating to weak activity comprising less than 70% of the cells) | 0 | 0 | 2 (score 2 relating to strong activity comprising more than 70% of the cells) | 0 | 0 | 2 (score 2 relating to strong activity comprising more than 70% of the cells) | 0 | 0 | 1 (1 relating to weak activity comprising less than 70% of the cells) | 0 | 0 | 0 |  |  | 
Nc1nonc1-c1nc2ccccc2n1CC(=O)c1ccccc1 [Example 1, 4-(1-Phenacyl-1H-benzimidazol-2-yl)-furazan-3-ylamine] |  |  |  | 0 | 0 | 2 (score 2 relating to strong activity comprising more than 70% of the cells) | 0 | 0 | 2 (score 2 relating to strong activity comprising more than 70% of the cells) | 0 | 0 | 2 (score 2 relating to strong activity comprising more than 70% of the cells) | 0 | 0 | 1 (1 relating to weak activity comprising less than 70% of the cells) | 0 | 0 | 0 |  |  | IC50 (Jurkat; Homo sapiens): 10 to 100 nM; IC50 (HeLa; Homo sapiens): 100 to 1000 nM; IC50 (MRC5; Homo sapiens): > 1000 nM
Nc1nonc1-c1nc2ccccc2n1CC(=O)c1ccc(-c2ccccc2)cc1 [Example 26] | > 1000 | > 1000 | > 1000 | 0 | 0 | 0 | 0 | 0 | 0 | 0 | 0 | 0 | 0 | 0 | 0 | 0 | 0 | 0 | 0 | 0 | Hoechst 33342 nuclear staining score ([1]; Jily, conc 1 μm): 0
CON=C(Cn1c(-c2nonc2N)nc2ccccc21)c1cccc(Cl)c1 (mixture of isomers) [Example 37] | 100 to 1000 | 100 to 1000 | 100 to 1000 | 0 | 0 | 0 | 0 | 0 | 0 |  |  |  | 0 | 0 | 1 (1 relating to weak activity comprising less than 70% of the cells) | 0 | 0 | 0 | 0 | 0 | Hoechst 33342 nuclear staining score ([1]; Jily, conc 1 μm): 2 (score 2 relating to strong activity comprising more than 70% of the cells)
